Assay results reported in patent US11273218B2, “Methods for treating Angelman syndrome and related disorders” (Cavion, Inc., priority 2015, dated 2022).
Where two headings read alike, the source gives them in different places.

Legend:
[1] = system: UBE3/129sv mice; experiment: Audiogenic-induced epilepsy test (Test 1) in Angelman syndrome mouse model; type: in vivo; conditions: oral gavage for 7 days, AS mice
Description: Three separate tests were performed to determine effects of two compounds, mibefradil and MK-8998 on behavioral and physiological deficits and epilepsy in a mouse model for Angelman syndrome. The tests included: audiogenic-induced epilepsy test (Test 1, T1), a battery of motor/behavioral tests (Test 2, T2) and long-term potentiation measurements (LTP, Test 3, T3). Completion of each test provided a quantitative result of mibefradil or MK-8998 effect on this test. For all three tests, 2 separate groups of mice were generated: group 1 for test 1 and group 2 for tests 2 and 3, as shown below in see Table 2 and each group consists of 6 subgroups, a-f.
For all behavioral and electrophysiology experiments female Ube3am^−/p^+KO mice (i.e., AS mice) were crossed with wild-type males, to generate heterozygous AS mice and littermate controls in the F1 hybrid 12952-C57BL/6 background. For epilepsy tests, AS mice are crossed with controls in the 12952/SvPasCrl background. In total, 2 groups of mice are required: group 1 for the epilepsy test (Table 2, group 1a-f) and group 2 for the behavioral test battery and electrophysiology (Table 2, group 2a-f). […] The number of mice used per test/subgroup is indicated in Table 2 and ranges from 5-7 mice/subgroup for electrophysiology, 10 mice/subgroup for epilepsy test, and 12 to 15 mice/subgroup for behavioral test battery. […]

[2] = system: CaMKIIα; conditions: striatum, cited from earlier work

CC(C)c1ccc(CC(=O)N[C@H](C)c2ccc(OCC(F)(F)F)cn2)cc1 [MK-8998]
treated animals with seizures eliminated completely ([1]; 60 mg/kg, audiogenic-induced seizures): about 80% | effect on audiogenic-induced seizures (in words) ([1]; 10, 30, 60 mg/kg): eliminated seizures in a dose-dependent manner

[Cl][Ni][Cl] [NiCl2]
decrease of threonine autophosphorylation of CaMKIIα ([2]; 100 μM): 35%

COCC(=O)O[C@]1(CCN(C)CCCc2nc3ccccc3[nH]2)CCc2cc(F)ccc2[C@@H]1C(C)C [mibefradil]
decrease of threonine autophosphorylation of CaMKIIα ([2]; 5 μM): 37%
